US8735414B2 (priority 2009, dated 2014)

Tested on: bicistronic HCV replicon (replicon RNA, GenBank Accession No. AJ242654)
Assay: HCV Replicon Assay
Type: cell-based
Settings: Hepatitis C virus, 72 h, read-out: Replicon IC50

Compound | IC50 [nM]
N#Cc1c(-c2ccc(S(=O)(=O)NC3(C(F)(F)F)CC3)cn2)n(C2CCC2)c2cc(O)c(F)cc12 [compound 813, 6-(3-cyano-1-cyclobutyl-5-fluoro-6-hydroxy-1H-indol-2-yl)-N-[1-(trifluoromethyl)cyclopropyl]pyridine-3-sulfonamide] | 500 to 2000
Cc1cc2c(cc1F)cc(-c1ccc(S(=O)(=O)N[C@@H](C)C(F)(F)F)cn1)n2-c1ncco1 [compound 1059, 6-[5-fluoro-6-methyl-1-(1,3-oxazol-2-yl)-1H-indol-2-yl]-N-[(2S)-1,1,1-trifluoropropan-2-yl]pyridine-3-sulfonamide] | < 500
CC(C)NS(=O)(=O)c1cnc(-c2c(C#N)c3ccc(Cl)cc3n2C(C)C)nc1 [compound 156, 2-[6-chloro-3-cyano-1-(propan-2-yl)-1H-indol-2-yl]-N-(propan-2-yl)pyrimidine-5-sulfonamide] | 500 to 2000
N#Cc1c(-c2ccc(S(=O)(=O)NC(CF)CF)cn2)n(C2CCC2)c2cc(C3CCC3)ccc12 [compound 342, 6-(3-cyano-1,6-dicyclobutyl-1H-indol-2-yl)-N-(1,3-difluoropropan-2-yl)pyridine-3-sulfonamide] | 500 to 2000
CC(O)c1cc2c(cc1F)c(C#N)c(-c1ccc(S(=O)(=O)N[C@@H](C)C(F)(F)F)cn1)n2-c1ncccn1 (stereo partly drawn) [compound 911, 6-[3-cyano-5-fluoro-6-(1-hydroxyethyl)-1-(pyrimidin-2-yl)-1H-indol-2-yl]-N-[(2S)-1,1,1-trifluoropropan-2-yl]pyridine-3-sulfonamide] | < 500
N#Cc1c(-c2ccc(S(=O)(=O)NC3CC(F)(F)C3)cn2)n(C2CCC2)c2ccc(Cl)cc12 [compound 243, 6-(5-chloro-3-cyano-1-cyclobutyl-1H-indol-2-yl)-N-(3,3-difluorocyclobutyl)pyridine-3-sulfonamide] | 500 to 2000
C[C@@H](NS(=O)(=O)c1ccc(-c2c(C#N)c3ccc(Cl)cc3n2C2CCCC2)nc1)C(F)(F)F [compound 223, 6-(6-chloro-3-cyano-1-cyclopentyl-1H-indol-2-yl)-N-[(2R)-1,1,1-trifluoropropan-2-yl]pyridine-3-sulfonamide] | < 500
N#Cc1c(-c2ncc(S(=O)(=O)NC(CF)CF)cn2)n(C2CCC2)c2cc(CC(F)F)ccc12 [compound 591, 2-[3-cyano-1-cyclobutyl-6-(2,2-difluoroethyl)-1H-indol-2-yl]-N-(1,3-difluoropropan-2-yl)pyrimidine-5-sulfonamide] | < 500
C[C@H](NS(=O)(=O)c1ccc(-c2c(C#N)c3ccc(CC(F)F)cc3n2CC2CC2)nc1)C(F)(F)F [compound 618, 6-[3-cyano-1-(cyclopropylmethyl)-6-(2,2-difluoroethyl)-1H-indol-2-yl]-N-[(2S)-1,1,1-trifluoropropan-2-yl]pyridine-3-sulfonamide] | < 500
[2H]C([2H])(C)c1cc2c(cc1F)c(C#N)c(-c1ccc(S(=O)(=O)N[C@@]([2H])(C)C(F)(F)F)cn1)n2-c1ncccn1 [compound 1079, 6-{3-cyano-6-[(1,1-dideuterium)ethyl]-5-fluoro-1-(pyrimidin-2-yl)-1H-indol-2-yl}-N-[(2S)-1,1,1-trifluoro(2-deuterium)propan-2-yl]pyridine-3-sulfonamide] | < 500
CCc1cc2c(cc1F)c(C(N)=O)c(-c1ccc(S(=O)(=O)N[C@@H](C)C(F)(F)F)cn1)n2-c1ccc(C)cn1 [compound 1039, 6-ethyl-5-fluoro-1-(5-methylpyridin-2-yl)-2-(5-{[(2S)-1,1,1-trifluoropropan-2-yl]sulfamoyl}pyridin-2-yl)-1H-indole-3-carboxamide] | 500 to 2000
Cc1ccc2c(c1)c(C(N)=O)c(-c1ccc(S(=O)(=O)N[C@@H](C)C(F)(F)F)cn1)n2-c1ncccn1 [compound 846, 5-methyl-1-(pyrimidin-2-yl)-2-(5-{[(2S)-1,1,1-trifluoropropan-2-yl]sulfamoyl}pyridin-2-yl)-1H-indole-3-carboxamide] | < 500
CC(=O)c1cc2c(cc1F)c(C(C)=O)c(-c1ccc(S(=O)(=O)NC(C)(C)C)cn1)n2-c1ncccn1 [compound 939, N-tert-butyl-6-(3,6-diacetyl-5-fluoro-1-(pyrimidin-2-yl)-1H-indol-2-yl)pyridine-3-sulfonamide] | 2000 to 5000
N#Cc1c(-c2ccc(S(N)(=O)=O)cn2)n(C2CCC2)c2cc(C3CC3)ccc12 [compound 90, 6-(3-cyano-1-cyclobutyl-6-cyclopropyl-1H-indol-2-yl)pyridine-3-sulfonamide] | 2000 to 5000
CC(C)NS(=O)(=O)c1ccc(-c2c(C#N)c3ccc(C4CC4)cc3n2C2CCC2)cn1 [compound 27, 5-(3-cyano-1-cyclobutyl-6-cyclopropyl-1H-indol-2-yl)-N-(propan-2-yl)pyridine-2-sulfonamide] | < 500
Cc1cc2c(cc1F)c(C#N)c(-c1ccc(S(=O)(=O)NC3(C(F)(F)F)CC3)cn1)n2C1CCCC1 [compound 644, 6-(3-cyano-1-cyclopentyl-5-fluoro-6-methyl-1H-indol-2-yl)-N-[1-(trifluoromethyl)cyclopropyl]pyridine-3-sulfonamide] | < 500
CC(C)n1c(-c2ncc(S(=O)(=O)N[C@@H](C)C(F)(F)F)cn2)c(C#N)c2cc(Cl)ccc21 [compound 420, 2-[5-chloro-3-cyano-1-(propan-2-yl)-1H-indol-2-yl]-N-[(2S)-1,1,1-trifluoropropan-2-yl]pyrimidine-5-sulfonamide] | 500 to 2000
CC(C)(NS(=O)(=O)c1ccc(-c2c(C#N)c3cc(F)c(OC(F)F)cc3n2C2CCCC2)nc1)C(F)(F)F [compound 862, 6-[3-cyano-1-cyclopentyl-6-(difluoromethoxy)-5-fluoro-1H-indol-2-yl]-N-(1,1,1-trifluoro-2-methylpropan-2-yl)pyridine-3-sulfonamide] | < 500
Cc1cc2c(cc1F)c(C(=O)O)c(-c1ccc(S(=O)(=O)N[C@@H](C)C(F)(F)F)cn1)n2C1CCCC1 [compound 758, (S)-1-cyclopentyl-5-fluoro-6-methyl-2-(5-(N-(1,1,1-trifluoropropan-2-yl)sulfamoyl)pyridin-2-yl)-1H-indole-3-carboxylic acid] | < 500
Cc1cc2c(cc1F)c(C#N)c(-c1ccc(S(=O)(=O)N[C@@H](C)C(F)(F)F)cn1)n2-c1ncc(F)cn1 [compound 924, 6-[3-cyano-5-fluoro-1-(5-fluoropyrimidin-2-yl)-6-methyl-1H-indol-2-yl]-N-[(2S)-1,1,1-trifluoropropan-2-yl]pyridine-3-sulfonamide] | < 500
N#Cc1c(-c2ccc(S(=O)(=O)NC(CF)CF)cn2)n(C2CCCC2)c2c(Cl)cccc12 [compound 88, 6-(7-chloro-3-cyano-1-cyclopentyl-1H-indol-2-yl)-N-(1,3-difluoropropan-2-yl)pyridine-3-sulfonamide] | < 500
C[C@@H](NS(=O)(=O)c1ccc(-c2c(C#N)c3ccc(F)cc3n2C2CCCCC2)nc1)C(F)(F)F [compound 252, 6-(3-cyano-1-cyclohexyl-6-fluoro-1H-indol-2-yl)-N-[(2R)-1,1,1-trifluoropropan-2-yl]pyridine-3-sulfonamide] | < 500
[2H]C([2H])([2H])c1cc2c(cc1F)c(C#N)c(-c1ccc(S(=O)(=O)N[C@@]([2H])(C)C(F)(F)F)cn1)n2-c1ncccn1 [compound 1107, 6-[3-cyano-5-fluoro-6-(1,1,1-trideuterium)methyl-1-(pyrimidin-2-yl)-1H-indol-2-yl]-N-[(2S)-1,1,1-trifluoro(2-deuterium)propan-2-yl]pyridine-3-sulfonamide] | < 500
